Publication PMC7187627 (Antimicrobial Agents and Chemotherapy, 2019)

Test: Safety and tolerability (adverse events, laboratory tests, ECG), multiple-ascending-dose phase 1 study
Format: in vivo
Details: all TEAEs
Description: Subjects were monitored closely with serial physical examinations, blood evaluations, and 12-lead ECGs. Subjects underwent safety laboratory testing, including measurement of blood cell counts (white blood cell [WBC] with differential, hemoglobin, and platelets), serum chemistry (sodium, potassium, chloride, calcium, bicarbonate, glucose, creatinine, blood urea nitrogen [BUN], creatine kinase [CK], aspartate aminotransferase [AST], alanine aminotransferase [ALT], alkaline phosphatase [ALP], total bilirubin, protein, albumin, amylase, and lipase) and urinalysis (protein, blood, and glucose). Study halting criteria had been established and were reviewed by an independent safety monitor (ISM) and the Safety Monitoring Committee (SMC) prior to proceeding with dosing within a cohort or to the next cohort.
The safety population included all subjects who received at least one dose of the study drug. The safety and tolerability of CRS3123 were evaluated by the sequential review of reported adverse events (AEs), changes from baseline in physical examination findings, vital sign measurements, safety laboratory tests (hematology, clinical chemistry, and urinalysis), and key 12-lead ECG findings. All safety assessments were summarized with descriptive statistics or frequency counts.
The period of observation for AE reporting began on day 1 at the time of study drug administration and continued through the final visit.
All AEs were coded to system organ class (SOC) and preferred term (PT) using the Medical Dictionary for Regulatory Activities (MedDRA), version 17.0 (https://www.meddra.org/). A treatment-emergent AE (TEAE) was defined as any AE that occurred during the study observation period (i.e., from day 1 at the time of study drug administration through the final visit). An AE with a partial onset date was classified as a TEAE if the reported partial onset date could not definitely be identified as before the date of study drug administration. Any AE with a missing onset date or missing time on day of study drug administration was classified as a TEAE.
To count the overall number of subjects who experienced each TEAE and calculation of an occurrence rate, a subject experiencing multiple occurrences of an AE was counted only once for that PT. Similarly, if a subject experienced multiple TEAEs within the same SOC, that subject was counted once to calculate an occurrence rate for the SOC. To count the number of subjects who experienced each TEAE by severity classification (mild, moderate, severe, and life-threatening) and calculate an occurrence rate, a subject experiencing multiple occurrences of an AE of the same severity was counted once in that particular severity classification for that PT. If a subject experienced multiple occurrences of an AE of differing severities, only the most severe occurrence within each PT was counted.

O=c1cc(NCCCN[C@@H]2CCOc3c(Br)cc(Br)cc32)[nH]c2ccsc12 [CRS3123]
No. (%) of subjects: Aspartate aminotransferase increased (Cohort A, 200 mg Q12h (n = 8)): 0 (0.0)
No. (%) of subjects: Blood bilirubin increased (Cohort A, 200 mg Q12h (n = 8)): 0 (0.0)
No. (%) of subjects: Blood calcium increased (Cohort A, 200 mg Q12h (n = 8)): 0 (0.0)
No. (%) of subjects: Blood potassium increased (Cohort A, 200 mg Q12h (n = 8)): 0 (0.0)
No. (%) of subjects: Blood pressure, diastolic, decreased (Cohort A, 200 mg Q12h (n = 8)): 0 (0.0)
No. (%) of subjects: Blood pressure, diastolic, increased (Cohort A, 200 mg Q12h (n = 8)): 0 (0.0)
No. (%) of subjects: Blood pressure, systolic, decreased (Cohort A, 200 mg Q12h (n = 8)): 0 (0.0)
No. (%) of subjects: Blood pressure, systolic, increased (Cohort A, 200 mg Q12h (n = 8)): 0 (0.0)
No. (%) of subjects: Diarrhea (Cohort A, 200 mg Q12h (n = 8)): 0 (0.0)
No. (%) of subjects: Dry skin (Cohort A, 200 mg Q12h (n = 8)): 0 (0.0)
No. (%) of subjects: Dysgeusia (Cohort A, 200 mg Q12h (n = 8)): 0 (0.0)
No. (%) of subjects: Ear and labyrinth disorders (system organ class) (Cohort A, 200 mg Q12h (n = 8)): 1 (12.5)
No. (%) of subjects: Ear discomfort (Cohort A, 200 mg Q12h (n = 8)): 1 (12.5)
No. (%) of subjects: Erythema (Cohort A, 200 mg Q12h (n = 8)): 0 (0.0)
No. (%) of subjects: Gastrointestinal disorders (system organ class) (Cohort A, 200 mg Q12h (n = 8)): 0 (0.0)
No. (%) of subjects: General disorders and administration site conditions (system organ class) (Cohort A, 200 mg Q12h (n = 8)): 0 (0.0)
No. (%) of subjects: Headache (Cohort A, 200 mg Q12h (n = 8)): 1 (12.5)
No. (%) of subjects: Hemoglobin decreased (Cohort A, 200 mg Q12h (n = 8)): 2 (25.0)
No. (%) of subjects: Infections and infestations (system organ class) (Cohort A, 200 mg Q12h (n = 8)): 1 (12.5)
No. (%) of subjects: Infusion site thrombosis (Cohort A, 200 mg Q12h (n = 8)): 0 (0.0)
No. (%) of subjects: Injury, poisoning, and procedural complications (system organ class) (Cohort A, 200 mg Q12h (n = 8)): 1 (12.5)
No. (%) of subjects: Investigations (system organ class) (Cohort A, 200 mg Q12h (n = 8)): 5 (62.5)
No. (%) of subjects: Lipase increased (Cohort A, 200 mg Q12h (n = 8)): 1 (12.5)
No. (%) of subjects: Musculoskeletal and connective tissue disorders (system organ class) (Cohort A, 200 mg Q12h (n = 8)): 0 (0.0)
No. (%) of subjects: Myalgia (Cohort A, 200 mg Q12h (n = 8)): 0 (0.0)
No. (%) of subjects: Nervous system disorders (system organ class) (Cohort A, 200 mg Q12h (n = 8)): 1 (12.5)
No. (%) of subjects: Oropharyngeal pain (Cohort A, 200 mg Q12h (n = 8)): 0 (0.0)
No. (%) of subjects: Psychiatric disorders (system organ class) (Cohort A, 200 mg Q12h (n = 8)): 1 (12.5)
No. (%) of subjects: Respiratory, thoracic, and mediastinal disorders (system organ class) (Cohort A, 200 mg Q12h (n = 8)): 0 (0.0)
No. (%) of subjects: Skin and subcutaneous tissue disorders (system organ class) (Cohort A, 200 mg Q12h (n = 8)): 0 (0.0)
No. (%) of subjects: Subjects with TEAEs (Cohort A, 200 mg Q12h (n = 8)): 8 (100.0)
No. (%) of subjects: Throat irritation (Cohort A, 200 mg Q12h (n = 8)): 0 (0.0)
No. (%) of subjects: Upper respiratory tract infection (Cohort A, 200 mg Q12h (n = 8)): 1 (12.5)
No. (%) of subjects: White blood cell count increased (Cohort A, 200 mg Q12h (n = 8)): 0 (0.0)
No. (%) of subjects: Alanine aminotransferase increased (Cohort B, 400 mg Q12h (n = 8)): 0 (0.0)
No. (%) of subjects: Amylase increased (Cohort B, 400 mg Q12h (n = 8)): 1 (12.5)
No. (%) of subjects: Anxiety (Cohort B, 400 mg Q12h (n = 8)): 0 (0.0)
No. (%) of subjects: Arthropod bite (Cohort B, 400 mg Q12h (n = 8)): 0 (0.0)
No. (%) of subjects: Aspartate aminotransferase increased (Cohort B, 400 mg Q12h (n = 8)): 0 (0.0)
No. (%) of subjects: Blood bilirubin increased (Cohort B, 400 mg Q12h (n = 8)): 0 (0.0)
No. (%) of subjects: Blood calcium increased (Cohort B, 400 mg Q12h (n = 8)): 1 (12.5)
No. (%) of subjects: Blood potassium increased (Cohort B, 400 mg Q12h (n = 8)): 1 (12.5)
No. (%) of subjects: Blood pressure, diastolic, decreased (Cohort B, 400 mg Q12h (n = 8)): 0 (0.0)
No. (%) of subjects: Blood pressure, diastolic, increased (Cohort B, 400 mg Q12h (n = 8)): 0 (0.0)
No. (%) of subjects: Blood pressure, systolic, decreased (Cohort B, 400 mg Q12h (n = 8)): 0 (0.0)
No. (%) of subjects: Blood pressure, systolic, increased (Cohort B, 400 mg Q12h (n = 8)): 0 (0.0)
No. (%) of subjects: Diarrhea (Cohort B, 400 mg Q12h (n = 8)): 2 (25.0)
